From patent US10329309B2, “3-(3H-imidazo[4,5-B]pyridin-2-yl)-1H-pyrazolo[4,3-B]pyridines and therapeutic uses thereof” (Samumed, LLC, priority 2015, dated 2019) come the findings set out here.

Structures are written as SMILES. Some results are limits rather than exact numbers.

The test system of experiment [1] is primary human mesenchymal stem cells (hMSCs). Description: Induction of chondrogenesis in primary human mesenchymal stem cells (nodule imaging, Rhodamine B/Nile Red). The experiment is classed as cell-based. To be noted: hMSC chondrogenesis; for Emax: TGF-β3 as positive control, read-out: Max. Activity as % TGF-β3 activity; for EC50: concentration required to induce 50% levels of chondrogenesis vs TGF-β3, read-out: Conc (nM) of 50% TGF-β3 activity. As for the experimental part: Representative compounds were screened using primary human mesenchymal stem cells (hMSCs) to determine their ability to induce chondrogenesis (process by which cartilage is developed).
Primary human mesenchymal stem cells (hMSCs) were purchased from Lonza (Walkersville, Md.) and expanded in Mesenchymal Stem Cell Growth Media (Lonza). Cells between passage 3 and 6 were used for the experiments.
Each compound was dissolved in DMSO as a 10 mM stock and used to prepare compound source plates. For the 96 well assay, serial dilution (1:3, 6-point dose-response curves from 2700 nM to 10 nM) and compound transfer was performed using the ECHO 550 (Labcyte, Sunnyvale, Calif.) into 96-well clear bottom assay plates (Greiner Bio-One) with appropriate DMSO backfill for a final DMSO concentration of 0.03%. hMSCs were plated at 20,000 cells/well in 250 μL/well Incomplete Chondrogenic Induction Medium (Lonza; DMEM, dexamethasone, ascorbate, insulin-transferrin-selenium [ITS supplement], gentamycin-amphotericin [GA-1000], sodium pyruvate, proline and L-glutamine). TGF-−3 (10 ng/mL) was used as a positive control for differentiation while negative control wells were treated with 75 nL DMSO for normalization and calculating EC50 values. For the 384 well assay, serial dilution (1:3, 8-point dose-response curves from 5000 nM to 2.2 nM) and compound transfer was performed using the ECHO 550 (Labcyte, Sunnyvale, Calif.) into 384-well clear bottom assay plates (Greiner Bio-One) with appropriate DMSO backfill for a final DMSO concentration of 0.03%. hMSCs were plated at 8,000 cells/well in 80 μL/well Incomplete Chondrogenic Induction Medium (Lonza; DMEM, dexamethasone, ascorbate, insulin-transferrin-selenium [ITS supplement], gentamycin-amphotericin [GA-1000], sodium pyruvate, proline and L-glutamine). TGF-β3 (10 ng/mL) was used as a positive control for differentiation while negative control wells were treated with 25 nL DMSO for normalization and calculating EC50 values. Cells were incubated at 37° C. and 5% CO2 for 6 days. To image chondrogenic nodules, the cells were fixed using 4% formaldehyde (Electron Microscopy Sciences), and stained with 2 μg/mL Rhodamine B (Sigma-Aldrich) and 20 μM Nile Red (Sigma-Aldrich) [Johnson K., et. al, A Stem Cell-Based Approach to Cartilage Repair, Science, (2012), 336(6082), 717-721]. The nodules imaged (25 images per well for 96 well plates and 9 images per well for 384 well plates at 10× magnification) by excitation at 531 nm and emission at 625 nm and quantified using the CellInsight CX5 (Thermo Scientific). Area of nodules in each well was normalized to the average of 3 DMSO treated wells on the same plate using Excel (Microsoft Inc.). The normalized averages (fold change over DMSO) of 2 or 3 replicate wells for each compound concentration were calculated. Due to solubility limitations of some of the compounds, curve fitting was incomplete leading to inaccurate EC50 determinations.
Using TGF-β3 as a positive control, the concentration of representative compounds required to induce 50% levels of chondrogenesis is reported. In addition, the maximum activity of each compound and the respective dose that each compound reached maximum chondrogenesis activity is reported.

In another experiment the test system is IL-6 (THP-1 cells). Description: Inhibition of IL-6 in LPS-stimulated THP-1 monocytes (HTRF). It counts as cell-based. To be noted: Homo sapiens; for EC50: LPS 500 ng/mL, IL-6 by HTRF; for inhibition at 10 µM: LPS stimulated, IL-6, at 10 μM, read-out: percent inhibition at 10 μM (given for EC50 of >10 μM). In a few lines: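 THP-1 cells, serum-starved in 1% FBS for 24 h, were pre-incubated 2 h with compound (10-point, 1:3 from 10 μM, 0.1% DMSO), then stimulated with 500 ng/mL LPS for 22 h at 37 °C. IL-6 was quantified by HTRF 665/620 ratio. EC50 was fitted from DMSO-normalized data; above 10 μM, % inhibition at 10 μM is given.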
Background: Time-resolved FRET reads energy transfer from a long-lived donor to a nearby acceptor.

As to `CCC(=O)Nc1cncc(-c2ccc3[nH]nc(-c4nc5c(-c6cccc(F)c6)ccnc5[nH]4)c3n2)c1` [Compound 1, N-(5-(3-(7-(3-fluorophenyl)-3H-imidazo[4,5-b]pyridin-2-yl)-1H-pyrazolo [4,3-b]pyridin-5-yl)pyridin-3-yl)propionamide], the Emax in experiment [1] stood at 29%. For the same compound, in the experiment on IL-6 (THP-1 cells), the EC50 was more than 10 µM and the inhibition (as a rule, the relative decrease from the control value, in per cent) at 10 µM is 3.5%.

Turning to `Fc1cccc(-c2ccnc3[nH]c(-c4n[nH]c5ccc(-c6ccncc6)nc45)nc23)c1` [Compound 18, 3-(7-(3-fluorophenyl)-3H-imidazo[4,5-b]pyridin-2-yl)-5-(pyridin-4-yl)-1H-pyrazolo[4,3-b]pyridine], the Emax in experiment [1] came to 42%. In addition, in the experiment with IL-6 (THP-1 cells), the EC50 is more than 10 µM and the inhibition at 10 µM is 18.4%.

Consider `Fc1cccc(-c2ccnc3[nH]c(-c4n[nH]c5ccc(-c6cncc(CN7CCC(F)(F)C7)c6)nc45)nc23)c1` [Compound 26, 5-(5-((3,3-Difluoropyrrolidin-1-yl)methyl)pyridin-3-yl)-3-(7-(3-fluorophenyl)-3H-imidazo[4,5-b]pyridin-2-yl)-1H-pyrazolo[4,3-b]pyridine], for which, in experiment [1], the Emax stood at 247% and the EC50 came out at 900 nM. For the same compound, the EC50 with IL-6 (THP-1 cells) was 0.985 µM.

As for `CC(C)(C)C(=O)Nc1cncc(-c2ccc3[nH]nc(-c4nc5c(-c6ccc(F)cc6)ccnc5[nH]4)c3n2)c1` [Compound 36, N-(5-(3-(7-(4-fluorophenyl)-3H-imidazo[4,5-b]pyridin-2-yl)-1H-pyrazolo [4,3-b]pyridin-5-yl)pyridin-3-yl)pivalamide], in experiment [1], the Emax was determined as 63% and the EC50 stood at 10 nM. For the same compound, in the experiment on IL-6 (THP-1 cells), the EC50 was more than 10 µM and the inhibition at 10 µM came to 19.2%.

`Fc1ccc(-c2ccnc3[nH]c(-c4n[nH]c5ccc(-c6cncnc6)nc45)nc23)cc1` [Compound 55, 3-(7-(4-Fluorophenyl)-3H-imidazo[4,5-b]pyridin-2-yl)-5-(pyrimidin-5-yl)-1H-pyrazolo[4,3-b]pyridine]: in experiment [1], the Emax was 99% and the EC50 was 30 nM. Moreover, in the experiment with IL-6 (THP-1 cells), the EC50 was more than 10 µM and the inhibition at 10 µM was found to be 43.9%.

In the case of `Nc1cncc(-c2ccc3[nH]nc(-c4nc5c(-c6ccccc6F)ccnc5[nH]4)c3n2)c1` [Compound 59, 5-(3-(7-(2-fluorophenyl)-3H-imidazo[4,5-b]pyridin-2-yl)-1H-pyrazolo[4,3-b]pyridin-5-yl)pyridin-3-amine], the Emax in experiment [1] was 127%. Moreover, the EC50 worked out at 10 nM in experiment [1] and 2.12 µM in the experiment on IL-6 (THP-1 cells).

In the case of `CC(C)C(=O)Nc1cncc(-c2ccc3[nH]nc(-c4nc5c(-c6ccccc6F)ccnc5[nH]4)c3n2)c1` [Compound 65, N-(5-(3-(7-(2-fluorophenyl)-3H-imidazo[4,5-b]pyridin-2-yl)-1H-pyrazolo [4,3-b]pyridin-5-yl)pyridin-3-yl)isobutyramide], in experiment [1], the Emax is 197% and the EC50 worked out at 10 nM. The compound also registered an EC50 with IL-6 (THP-1 cells) of 0.151 µM.

With `CC(C)C(=O)Nc1cncc(-c2ccc3[nH]nc(-c4nc5c(-c6cccnc6)ccnc5[nH]4)c3n2)c1` [Compound 93, N-(5-(3-(7-(pyridin-3-yl)-3H-imidazo[4,5-b]pyridin-2-yl)-1H-pyrazolo[4,3-b]pyridin-5-yl)pyridin-3-yl)isobutyramide], the Emax in experiment [1] is 26%. Further, the EC50 in the experiment with IL-6 (THP-1 cells) amounted to 0.984 µM.

Regarding `Cc1ccncc1-c1ccc2[nH]nc(-c3nc4c(-c5ccncc5)ccnc4[nH]3)c2n1` [Compound 117, 5-(4-methylpyridin-3-yl)-3-(7-(pyridin-4-yl)-3H-imidazo[4,5-b]pyridin-2-yl)-1H-pyrazolo[4,3-b]pyridine], in experiment [1], the Emax stood at 147% and the EC50 was 100 nM. In the experiment with IL-6 (THP-1 cells), the EC50 was more than 10 µM and the inhibition at 10 µM turned out to be 18.6%.

For `O=C(Cc1ccccc1)Nc1cncc(-c2ccc3[nH]nc(-c4nc5c(-c6ccncc6)ccnc5[nH]4)c3n2)c1` [Compound 122, 2-phenyl-N-(5-(3-(7-(pyridin-4-yl)-3H-imidazo[4,5-b]pyridin-2-yl)-1H-pyrazolo[4,3-b]pyridin-5-yl)pyridin-3-yl)acetamide], in experiment [1], the Emax turned out to be 63% and the EC50 was found to be 10 nM. In the experiment on IL-6 (THP-1 cells), the EC50 was more than 10 µM and the inhibition at 10 µM was 27%.

With `CCCC(=O)Nc1cncc(-c2ccc3[nH]nc(-c4nc5c(-c6ccncc6)ccnc5[nH]4)c3n2)c1` [Compound 129, N-(5-(3-(7-(pyridin-4-yl)-3H-imidazo[4,5-b]pyridin-2-yl)-1H-pyrazolo[4,3-b]pyridin-5-yl)pyridin-3-yl)butyramide], the Emax in experiment [1] was determined as 50%. In the experiment with IL-6 (THP-1 cells), the EC50 was more than 10 µM and the inhibition at 10 µM came to 14.9%.

Consider `O=C(Nc1cncc(-c2ccc3[nH]nc(-c4nc5c(-c6ccncc6)ccnc5[nH]4)c3n2)c1)C1CCCCC1` [Compound 135, N-(5-(3-(7-(pyridin-4-yl)-3H-imidazo[4,5-b]pyridin-2-yl)-1H-pyrazolo[4,3-b]pyridin-5-yl)pyridin-3-yl)cyclohexanecarboxamide], for which, in experiment [1], the Emax is 69% and the EC50 amounted to 10 nM. Moreover, in the experiment on IL-6 (THP-1 cells), the EC50 was more than 1 µM and the inhibition at 10 µM was 22.1%.

Consider `CCNCc1cncc(-c2ccc3[nH]nc(-c4nc5c(-c6ccccn6)ccnc5[nH]4)c3n2)c1` [Compound 146, N-((5-(3-(7-(pyridin-2-yl)-3H-imidazo[4,5-b]pyridin-2-yl)-1H-pyrazolo[4,3-b]pyridin-5-yl)pyridin-3-yl)methyl)ethanamine], for which, in experiment [1], the Emax is 28%. Further, in the experiment on IL-6 (THP-1 cells), the EC50 is more than 10 µM and the inhibition at 10 µM came out at 4.5%.

As for `CCCCC(=O)Nc1cncc(-c2ccc3[nH]nc(-c4nc5c(-c6ccccn6)ccnc5[nH]4)c3n2)c1` [Compound 159, N-(5-(3-(7-(pyridin-2-yl)-3H-imidazo[4,5-b]pyridin-2-yl)-1H-pyrazolo[4,3-b]pyridin-5-yl)pyridin-3-yl)pentanamide], in experiment [1], the Emax was determined as 60% and the EC50 stood at 100 nM. Besides, in the experiment with IL-6 (THP-1 cells), the EC50 is more than 10 µM and the inhibition at 10 µM is 33.6%.

`CCC(=O)Nc1cncc(-c2ccc3[nH]nc(-c4nc5c(N6CCCCC6)ccnc5[nH]4)c3n2)c1` [Compound 169, N-(5-(3-(7-(piperidin-1-yl)-3H-imidazo[4,5-b]pyridin-2-yl)-1H-pyrazolo[4,3-b]pyridin-5-yl)pyridin-3-yl)propionamide]: the Emax in experiment [1] was found to be 38%. Moreover, in the experiment on IL-6 (THP-1 cells), the EC50 was more than 10 µM and the inhibition at 10 µM was found to be 12.7%.

On to `CN(C)c1cncc(-c2ccc3[nH]nc(-c4nc5c(N6CCCCC6)ccnc5[nH]4)c3n2)c1` [Compound 175, N,N-dimethyl-5-(3-(7-(piperidin-1-yl)-3H-imidazo[4,5-b]pyridin-2-yl)-1H-pyrazolo [4,3-b]pyridin-5-yl)pyridin-3-amine], for which, in experiment [1], the Emax was determined as 42%. Further, in the experiment on IL-6 (THP-1 cells), the EC50 is more than 10 µM and the inhibition at 10 µM is 27.6%.

On to `CN(C)Cc1cncc(-c2ccc3[nH]nc(-c4nc5c(N6CCCCC6)ccnc5[nH]4)c3n2)c1` [Compound 181, N,N-dimethyl-1-(5-(3-(7-(piperidin-1-yl)-3H-imidazo[4,5-b]pyridin-2-yl)-1H-pyrazolo[4,3-b]pyridin-5-yl)pyridin-3-yl)methanamine], for which, in experiment [1], the Emax was 44%. In addition, in the experiment on IL-6 (THP-1 cells), the EC50 turned out to be 8.3 µM.
